# Data published in ChEMBL document CHEMBL1155726, “Seven new sesquiterpene glycosides from the root bark of Dictamnus dasycarpus” (J Nat Prod, 2001).
# Activity calls are given as the source filed them. The rule behind the calls is not given here.
# Tested on: Splenocyte
# Test: Immunomodulatory activity in mouse splenocyte assessed as stimulation of proliferation at 10 umole/L after 44 hrs by MTT assay in presence of ConA
# Format: functional, cell-based
structure (smiles),measurement,value
CC(C)(O)[C@@H]1CC[C@]23CO[C@](C)(CC[C@@H]2O)[C@H]3[C@@H]1O[C@@H]1O[C@H](CO)[C@@H](O)[C@H](O)[C@H]1O,Activity,Active
